Activity calls are given as the source filed them. The calls are words filed in the database; no cut-off is given here.
Experiments:
[1] = system: Epidermal growth factor receptor (Homo sapiens), P00533 [L858R,T790M]; experiment: Inhibition of EGF-induced EGFR T790M/L858R double mutant phosphorylation in human NCI-H1975 cells pretreated for 2 hrs followed by EGF challenge by Western blotting analysis; format: cell-based
[2] = molecular target: Receptor tyrosine-protein kinase erbB-2 (Homo sapiens, UniProt P04626); experiment: Inhibition of ErbB2 (unknown origin) expressed in baculovirus expression system using Poly(Glu:Tyr)4:1 after 60 mins by ELISA
[3] = molecular target: T1, Epidermal growth factor receptor (Homo sapiens, UniProt P00533); experiment: Inhibition of EGFR in human A431 cells assessed as inhibition of EGF-induced AKT phosphorylation at 0.1 to 1 umol/L pretreated for 2 hrs followed by EGF challenge by Western blotting analysis; format: cell-based; settings: A-431
A-431 = experiment: Antiproliferative activity against human A431 cells assessed as growth inhibition after 72 hrs by SRB assay; format: functional, cell-based; settings: A-431, 72 h
[4] = molecular target: Proto-oncogene tyrosine-protein kinase receptor Ret (Homo sapiens, UniProt P07949); experiment: Inhibition of recombinant RET (unknown origin) using Poly(Glu:Tyr)4:1 after 60 mins by ELISA
[5] = molecular target: Tyrosine-protein kinase ABL1 (Homo sapiens, UniProt P00519); experiment: Inhibition of recombinant ABL (unknown origin) using Poly(Glu:Tyr)4:1 after 60 mins by ELISA
[6] = molecular target: Epidermal growth factor receptor (Homo sapiens, UniProt P00533, L858R/T790M); experiment: Inhibition of EGFR T790M/L858R double mutant (unknown origin) expressed in baculovirus expression system using Poly(Glu:Tyr)4:1 substrate after 60 mins by ELISA
[7] = molecular target: T1, Epidermal growth factor receptor; experiment: Inhibition of wild type EGFR domain (unknown origin) expressed in baculovirus expression system using Poly(Glu:Tyr)4:1 substrate after 60 mins by ELISA
[8] = molecular target: T1, Epidermal growth factor receptor; experiment: Inhibition of EGFR in human A431 cells assessed as inhibition of EGF-induced ERK1/2 phosphorylation at 0.1 to 1 umol/L pretreated for 2 hrs followed by EGF challenge by Western blotting analysis; format: cell-based; settings: A-431
[9] = molecular target: Insulin-like growth factor 1 receptor (Homo sapiens, UniProt P08069); experiment: Inhibition of IGF1R (unknown origin) expressed in baculovirus expression system using Poly(Glu:Tyr)4:1 after 60 mins by ELISA
[10] = molecular target: Vascular endothelial growth factor receptor 1 (Homo sapiens, UniProt P17948); experiment: Inhibition of recombinant Flt-1 (unknown origin) using Poly(Glu:Tyr)4:1 after 60 mins by ELISA
[11] = molecular target: Platelet-derived growth factor receptor beta (Homo sapiens, UniProt P09619); experiment: Inhibition of recombinant PDGFRbeta (unknown origin) using Poly(Glu:Tyr)4:1 after 60 mins by ELISA
[12] = molecular target: Fibroblast growth factor receptor 1 (Homo sapiens, UniProt P11362); experiment: Inhibition of FGFR1 (unknown origin) expressed in baculovirus expression system using Poly(Glu:Tyr)4:1 after 60 mins by ELISA
[13] = molecular target: Mast/stem cell growth factor receptor Kit (Homo sapiens, UniProt P10721); experiment: Inhibition of recombinant c-Kit (unknown origin) using Poly(Glu:Tyr)4:1 after 60 mins by ELISA
[14] = molecular target: T1, Epidermal growth factor receptor; experiment: Inhibition of EGF-induced EGFR autophosphorylation in human A431 cells pretreated for 2 hrs followed by EGF challenge by Western blotting analysis; format: cell-based; settings: A-431
[15] = molecular target: Vascular endothelial growth factor receptor 2 (Homo sapiens, UniProt P35968); experiment: Inhibition of KDR (unknown origin) expressed in baculovirus expression system using Poly(Glu:Tyr)4:1 after 60 mins by ELISA
[16] = system: Epidermal growth factor receptor (Homo sapiens), P00533 [L858R,T790M]; experiment: Inhibition of EGFR T790M/L858R double mutant in human NCI-H1975 cells assessed as inhibition of EGF-induced AKT phosphorylation pretreated for 2 hrs followed by EGF challenge by Western blotting analysis; format: cell-based
[17] = molecular target: Receptor tyrosine-protein kinase erbB-4 (Homo sapiens, UniProt Q15303); experiment: Inhibition of recombinant ErbB4 (unknown origin) using Poly(Glu:Tyr)4:1 after 60 mins by ELISA
NCI-H1975 = experiment: Antiproliferative activity against gefitinib-resistant human NCI-H1975 cells assessed as growth inhibition after 72 hrs by SRB assay; format: functional, cell-based; settings: NCI-H1975, 72 h
Ephrin type-A receptor 2 = Ephrin type-A receptor 2 (Homo sapiens, UniProt P29317); experiment: Inhibition of recombinant EPHA2 (unknown origin) using Poly(Glu:Tyr)4:1 after 60 mins by ELISA
[18] = molecular target: Macrophage-stimulating protein receptor (Homo sapiens, UniProt Q04912); experiment: Inhibition of recombinant RON (unknown origin) using Poly(Glu:Tyr)4:1 after 60 mins by ELISA
[19] = system: Epidermal growth factor receptor (Homo sapiens), P00533 [L858R,T790M]; experiment: Inhibition of EGFR T790M/L858R double mutant in human NCI-H1975 cells assessed as inhibition of EGF-induced ERK1/2 phosphorylation pretreated for 2 hrs followed by EGF challenge by Western blotting analysis; format: cell-based
[20] = molecular target: Platelet-derived growth factor receptor alpha (Homo sapiens, UniProt P16234); experiment: Inhibition of recombinant PDGFRalpha (unknown origin) using Poly(Glu:Tyr)4:1 after 60 mins by ELISA
[21] = molecular target: T1, Epidermal growth factor receptor; experiment: Inhibition of EGF-induced EGFR autophosphorylation in human A431 cells at 0.1 umol/L pretreated for 2 hrs followed by EGF challenge by Western blotting analysis; format: cell-based; settings: A-431
[22] = system: Epidermal growth factor receptor (Homo sapiens), P00533 [L858R,T790M]; experiment: Inhibition of EGF-induced EGFR T790M/L858R double mutant phosphorylation in human NCI-H1975 cells at 0.1 umol/L pretreated for 2 hrs followed by EGF challenge by Western blotting analysis; format: cell-based

Sequence of Epidermal growth factor receptor (Homo sapiens), P00533 [L858R,T790M] (P00533 whole entry T790M/L858R, looked up): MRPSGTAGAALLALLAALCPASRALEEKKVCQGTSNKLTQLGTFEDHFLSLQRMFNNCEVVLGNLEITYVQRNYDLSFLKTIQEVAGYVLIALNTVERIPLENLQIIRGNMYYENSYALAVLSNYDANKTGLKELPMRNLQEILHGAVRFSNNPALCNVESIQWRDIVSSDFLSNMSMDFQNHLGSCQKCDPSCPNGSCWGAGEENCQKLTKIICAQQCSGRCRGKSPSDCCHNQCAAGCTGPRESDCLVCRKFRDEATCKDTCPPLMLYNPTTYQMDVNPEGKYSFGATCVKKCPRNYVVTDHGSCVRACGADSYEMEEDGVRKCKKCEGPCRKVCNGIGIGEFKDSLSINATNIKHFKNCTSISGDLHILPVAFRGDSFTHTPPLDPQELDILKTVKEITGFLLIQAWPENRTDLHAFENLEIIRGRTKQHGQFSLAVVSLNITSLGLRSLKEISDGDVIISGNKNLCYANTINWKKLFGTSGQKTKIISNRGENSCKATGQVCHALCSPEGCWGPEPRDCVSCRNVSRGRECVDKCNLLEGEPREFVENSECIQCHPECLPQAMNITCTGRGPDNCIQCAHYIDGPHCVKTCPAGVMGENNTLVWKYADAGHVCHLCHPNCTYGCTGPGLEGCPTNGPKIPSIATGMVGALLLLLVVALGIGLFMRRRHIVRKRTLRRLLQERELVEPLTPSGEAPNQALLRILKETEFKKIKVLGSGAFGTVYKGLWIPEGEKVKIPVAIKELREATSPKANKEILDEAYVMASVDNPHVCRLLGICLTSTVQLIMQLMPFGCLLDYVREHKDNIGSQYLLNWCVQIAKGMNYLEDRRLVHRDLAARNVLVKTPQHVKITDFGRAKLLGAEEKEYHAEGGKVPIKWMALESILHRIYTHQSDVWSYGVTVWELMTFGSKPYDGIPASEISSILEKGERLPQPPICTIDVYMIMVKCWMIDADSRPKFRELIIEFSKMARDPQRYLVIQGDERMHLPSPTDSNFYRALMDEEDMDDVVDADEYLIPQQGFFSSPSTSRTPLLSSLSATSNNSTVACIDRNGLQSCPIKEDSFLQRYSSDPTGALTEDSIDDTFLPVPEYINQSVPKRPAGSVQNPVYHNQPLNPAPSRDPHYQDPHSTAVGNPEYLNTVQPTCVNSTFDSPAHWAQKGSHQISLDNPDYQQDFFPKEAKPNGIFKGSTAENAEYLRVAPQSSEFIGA
T1 sequence (P00533 whole entry): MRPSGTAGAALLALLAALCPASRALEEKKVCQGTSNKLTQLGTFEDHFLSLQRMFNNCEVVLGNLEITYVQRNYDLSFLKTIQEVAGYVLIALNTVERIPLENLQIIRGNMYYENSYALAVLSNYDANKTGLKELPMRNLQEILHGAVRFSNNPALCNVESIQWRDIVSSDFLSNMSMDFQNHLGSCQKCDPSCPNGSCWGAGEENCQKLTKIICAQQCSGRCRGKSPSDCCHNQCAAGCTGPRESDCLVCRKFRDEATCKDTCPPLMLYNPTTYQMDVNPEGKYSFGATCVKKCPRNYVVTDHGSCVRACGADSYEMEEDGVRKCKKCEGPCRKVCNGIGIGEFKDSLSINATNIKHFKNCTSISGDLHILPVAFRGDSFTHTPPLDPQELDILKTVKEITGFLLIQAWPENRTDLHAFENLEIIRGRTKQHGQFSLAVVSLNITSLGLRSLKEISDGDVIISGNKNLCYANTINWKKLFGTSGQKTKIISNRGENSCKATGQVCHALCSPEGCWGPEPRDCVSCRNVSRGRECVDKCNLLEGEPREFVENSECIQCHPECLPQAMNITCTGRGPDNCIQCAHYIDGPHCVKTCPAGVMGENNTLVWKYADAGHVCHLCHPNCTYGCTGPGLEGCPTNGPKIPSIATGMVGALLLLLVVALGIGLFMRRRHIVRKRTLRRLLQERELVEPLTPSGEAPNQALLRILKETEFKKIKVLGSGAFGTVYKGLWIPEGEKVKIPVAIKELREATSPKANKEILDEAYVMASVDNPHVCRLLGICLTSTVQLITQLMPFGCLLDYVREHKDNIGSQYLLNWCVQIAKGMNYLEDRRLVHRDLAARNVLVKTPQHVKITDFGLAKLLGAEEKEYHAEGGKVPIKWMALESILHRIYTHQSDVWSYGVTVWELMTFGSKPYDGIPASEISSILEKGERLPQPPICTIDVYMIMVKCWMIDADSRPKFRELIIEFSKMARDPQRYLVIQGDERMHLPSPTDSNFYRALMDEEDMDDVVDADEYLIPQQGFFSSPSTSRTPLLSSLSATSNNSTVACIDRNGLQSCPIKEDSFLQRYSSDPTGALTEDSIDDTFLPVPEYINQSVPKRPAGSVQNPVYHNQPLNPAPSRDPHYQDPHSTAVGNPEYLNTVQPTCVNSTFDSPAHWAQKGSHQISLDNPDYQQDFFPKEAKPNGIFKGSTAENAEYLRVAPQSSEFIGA
Sequence of Fibroblast growth factor receptor 1 (P11362 whole entry): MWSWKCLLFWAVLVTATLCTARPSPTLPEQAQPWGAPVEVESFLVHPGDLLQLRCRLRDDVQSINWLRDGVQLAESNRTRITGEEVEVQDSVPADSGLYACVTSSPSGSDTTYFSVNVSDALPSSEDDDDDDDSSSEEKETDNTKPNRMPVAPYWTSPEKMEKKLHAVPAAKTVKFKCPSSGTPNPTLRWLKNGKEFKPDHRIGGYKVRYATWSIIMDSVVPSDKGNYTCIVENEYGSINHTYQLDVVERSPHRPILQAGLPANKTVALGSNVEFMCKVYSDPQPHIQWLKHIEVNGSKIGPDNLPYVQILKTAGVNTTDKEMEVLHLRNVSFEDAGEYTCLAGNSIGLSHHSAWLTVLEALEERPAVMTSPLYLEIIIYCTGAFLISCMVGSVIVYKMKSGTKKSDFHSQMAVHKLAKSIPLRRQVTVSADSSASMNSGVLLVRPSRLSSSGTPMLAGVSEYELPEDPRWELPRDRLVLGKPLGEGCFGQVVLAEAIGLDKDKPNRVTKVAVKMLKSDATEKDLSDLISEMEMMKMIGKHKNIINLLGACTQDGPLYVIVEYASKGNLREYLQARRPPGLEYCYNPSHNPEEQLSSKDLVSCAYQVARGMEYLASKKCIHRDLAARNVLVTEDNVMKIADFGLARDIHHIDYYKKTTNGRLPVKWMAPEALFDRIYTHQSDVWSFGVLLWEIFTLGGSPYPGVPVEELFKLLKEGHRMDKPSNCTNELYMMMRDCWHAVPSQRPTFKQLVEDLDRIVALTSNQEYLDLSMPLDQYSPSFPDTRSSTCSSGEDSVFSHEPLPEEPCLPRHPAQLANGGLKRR
Sequence of Receptor tyrosine-protein kinase erbB-2 (P04626 whole entry): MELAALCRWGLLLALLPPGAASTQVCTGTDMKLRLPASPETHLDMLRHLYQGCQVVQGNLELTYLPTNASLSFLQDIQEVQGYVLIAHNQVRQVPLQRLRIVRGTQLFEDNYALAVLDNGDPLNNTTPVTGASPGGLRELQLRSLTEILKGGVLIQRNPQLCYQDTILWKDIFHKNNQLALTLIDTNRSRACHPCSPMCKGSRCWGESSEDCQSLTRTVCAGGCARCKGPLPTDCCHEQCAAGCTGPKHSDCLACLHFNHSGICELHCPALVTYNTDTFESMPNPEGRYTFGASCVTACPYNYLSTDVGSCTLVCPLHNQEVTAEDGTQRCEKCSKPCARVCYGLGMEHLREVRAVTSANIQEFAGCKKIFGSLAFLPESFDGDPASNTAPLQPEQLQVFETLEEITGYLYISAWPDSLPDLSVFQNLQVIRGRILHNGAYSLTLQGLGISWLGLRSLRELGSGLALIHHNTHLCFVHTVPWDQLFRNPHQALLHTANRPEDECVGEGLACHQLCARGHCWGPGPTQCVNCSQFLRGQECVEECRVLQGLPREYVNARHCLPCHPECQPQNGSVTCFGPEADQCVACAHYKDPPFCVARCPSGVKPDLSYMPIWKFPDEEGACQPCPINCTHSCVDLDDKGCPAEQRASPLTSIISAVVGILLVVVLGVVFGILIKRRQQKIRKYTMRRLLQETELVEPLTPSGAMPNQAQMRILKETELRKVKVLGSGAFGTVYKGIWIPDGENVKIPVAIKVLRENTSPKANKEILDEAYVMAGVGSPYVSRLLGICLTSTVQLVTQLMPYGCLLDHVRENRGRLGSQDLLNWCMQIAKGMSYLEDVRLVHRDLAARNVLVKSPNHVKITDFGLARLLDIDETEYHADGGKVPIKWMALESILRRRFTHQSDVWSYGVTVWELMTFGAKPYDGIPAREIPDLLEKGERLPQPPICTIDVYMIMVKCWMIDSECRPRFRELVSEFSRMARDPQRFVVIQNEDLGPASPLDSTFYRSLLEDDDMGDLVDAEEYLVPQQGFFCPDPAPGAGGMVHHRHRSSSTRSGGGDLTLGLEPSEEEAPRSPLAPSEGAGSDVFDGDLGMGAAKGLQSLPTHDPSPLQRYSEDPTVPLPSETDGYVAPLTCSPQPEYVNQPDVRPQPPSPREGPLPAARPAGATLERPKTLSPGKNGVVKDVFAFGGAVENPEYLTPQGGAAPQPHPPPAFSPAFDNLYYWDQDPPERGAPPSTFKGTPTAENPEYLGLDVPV

| SMILES | inhibition [1] | IC50 [2] | inhibition [3] | IC50 (A-431) | IC50 [4] | IC50 [5] | IC50 [6] | IC50 [7] | inhibition [8] | IC50 [9] | IC50 [10] | IC50 [11] | IC50 [12] | IC50 [13] | inhibition [14] | IC50 [15] | inhibition [16] | IC50 [17] | IC50 (NCI-H1975) | IC50 (Ephrin type-A receptor 2) | also measured |
| --- | --- | --- | --- | --- | --- | --- | --- | --- | --- | --- | --- | --- | --- | --- | --- | --- | --- | --- | --- | --- | --- |
| O=C(/C=C/CN1CC2CCC1C(=O)C2)Nc1cc2c(Nc3ccc(F)c(Cl)c3)ncnc2s1 (centres undefined) | Dose-dependent effect | 0.03 µM | Active | 1.54 µM | > 10 µM | > 10 µM | 0.004 µM | 0.0009 µM | Active | > 10 µM | > 10 µM | > 10 µM | > 10 µM | > 10 µM | Dose-dependent effect | > 10 µM | Dose-dependent effect | 0.037 µM | 12.1 µM | > 10 µM | IC50 [18]: > 10 µM; inhibition [19]: Dose-dependent effect; IC50 [20]: > 10 µM; inhibition [21]: Active |
| C=CC(=O)Nc1cc2c(Nc3ccc(F)c(Cl)c3)ncnc2s1 | Dose-dependent effect | 0.04 µM | Active | 0.73 µM | 1.63 µM | > 10 µM | 0.024 µM | 0.016 µM | Active | > 10 µM | > 10 µM | > 10 µM | > 10 µM | > 10 µM | Dose-dependent effect | > 10 µM | Dose-dependent effect | 0.004 µM | 3 µM | > 10 µM | inhibition [22]: Active; IC50 [18]: > 10 µM; inhibition [19]: Dose-dependent effect; IC50 [20]: > 10 µM; inhibition [21]: Active |
